# Results as given in patent US20260041680A1, “METHODS OF TREATING CANCER WITH LONG-ACTING TOPOISOMERASE I INHIBITOR” (priority 2022, published 2026).
# Where two headings read alike, the source gives them in different places.
# Assays:
# [1] = test system: H446 human small cell lung cancer xenograft
# [2] = test system: H460 human lung cancer xenograft
# [3] = test system: Panc-1 human pancreatic cancer xenograft
# [4] = test system: HT-29 human colon cancer xenograft; assay: HT-29 human colon cancer xenograft, antitumor activity and tolerability; format: in vivo, nude rat
# [5] = test system: MKN45 human gastric cancer xenograft
# [6] = test system: HCT116 human colon cancer xenograft
# [7] = test system: NCI-N87 human gastric cancer xenograft
# [8] = SN-38 formed from CPT-11; evident from high SN-38G/SN-38; cited from earlier work
# [9] = in vivo, po
# [10] = pegamotecan; cited from earlier work
# [11] = cisplatin IP 5 mg/kg once a week for 2 weeks
# [12] = PLX038 200 mg/kg, irinotecan 60 mg/kg, IV once a week for 2 weeks
# [13] = irinotecan 60 mg/kg IV once a week for 2 weeks
# [14] = PLX038 IV 200 mg/kg once a week for 2 weeks
# [15] = PLX038 200 mg/kg IV once a week for 2 weeks
compound,measurement,setting,value
N.N.[Cl][Pt][Cl] [cisplatin],TGI,[1]; [11],36.1%
same,TGI,[2]; [11],33%
Nc1ccn([C@@H]2O[C@H](CO)[C@@H](O)C2(F)F)c(=O)n1 [gemcitabine],TGI,[3]; gemcitabine IP 50 mg/kg once a week for 2 weeks,32.5%
CCc1c2c(nc3ccc(OC(=O)N4CCC(N5CCCCC5)CC4)cc13)-c1cc3c(c(=O)n1C2)COC(=O)[C@]3(O)CC [irinotecan],tumor growth inhibition (TGI),[4]; irinotecan 70/50 mg/kg IV once a week for 2 weeks,45%
same,loss in body weight,[4]; irinotecan at 70 mg/kg IV (second dose lowered to 50 mg/kg),16%
same,tolerability,[5]; [12],well-tolerated
same,TGI,[5]; [13],45.6%
same,tolerability,[6]; [12],well tolerated
same,TGI,[6]; [13],65.4%
same,tolerability,[7]; [12],well-tolerated
same,TGI,[7]; [13],57.8%
same,liver/GI exposure of SN-38,[8],high
CNCc1ccc(-c2[nH]c3cc(F)cc4c3c2CCNC4=O)cc1 [rucaparib],rucaparib pre-dose (trough) concentrations at steady state,[9],reasonably consistent with prior data
O-[7-(tetra-polyethylene glycol ether)-carboxamido-1-cyano-2-heptyl]-N-(10′-methoxy-7′-ethyl-camptothecin)-N-[4′-(diethylcarbamoyl)phenyl)] carbamate [PLX038],TGI,[3]; [14],73.1%
same,TGI,[1]; [14],41.0%
same,tumor growth inhibition (TGI),[4]; PLX038 50 mg/kg IV once a week for 2 weeks,13%
same,tumor growth inhibition (TGI),[4]; PLX038 100 mg/kg IV once a week for 2 weeks,35%
same,tumor growth inhibition (TGI),[4]; [15],61%
same,TGI,[5]; [15],59.0%
same,TGI,[6]; [15],46.6%
same,TGI,[7]; [15],34.4%
same,TGI,[2]; [14],30%
pegamotecan,maximum tolerated dose (MTD),[10],3.24 g/m^2
